Measurements published in the NIST ThermoML archive (doi:10.1021/je060271a).
Several values for one entry are separate records, joined by “and”; a condition that tells them apart may be missing. Equal entries are not always repeated.

Details: 283.15 K, Liquid, Vibrating tube method

CCCCCC(=O)OCC(COC(=O)CCCCC)(COC(=O)CCCCC)COC(=O)CCCCC [pentaerythritol tetrahexanoate]
Details | mass density
147.5 kPa | 1004.2 kg/m3
147.8 kPa | 1004.2 kg/m3
148.2 kPa | 1004.2 kg/m3
148.7 kPa | 1004.3 kg/m3
150.5 kPa | 1004.1 kg/m3
150.8 kPa | 1004.2 kg/m3
151.3 kPa | 1004.3 kg/m3
151.5 kPa | 1004.3 kg/m3
151.7 kPa | 1004.3 kg/m3
152.4 kPa | 1004.2 kg/m3
152.7 kPa | 1004.2 kg/m3
153.2 kPa | 1004.2 kg/m3
153.4 kPa | 1004.2 kg/m3
153.7 kPa | 1004.4 kg/m3
154.1 kPa | 1004.3 kg/m3
154.3 kPa | 1004.2 kg/m3
154.6 kPa | 1004.1 kg/m3 and 1004.2 kg/m3
155.1 kPa | 1004.3 kg/m3
155.7 kPa | 1004.2 kg/m3
156.4 kPa | 1004.2 kg/m3
156.5 kPa | 1004.1 kg/m3 and 1004.2 kg/m3
157.2 kPa | 1004.3 kg/m3
157.6 kPa | 1004.2 kg/m3
157.7 kPa | 1004.2 kg/m3
157.9 kPa | 1004.3 kg/m3
160.5 kPa | 1004.2 kg/m3
161 kPa | 1004.2 kg/m3
161.4 kPa | 1004.2 kg/m3
161.6 kPa | 1004.3 kg/m3
162.3 kPa | 1004.3 kg/m3
162.4 kPa | 1004.1 kg/m3
163 kPa | 1004.2 kg/m3
163.1 kPa | 1004.3 kg/m3
163.8 kPa | 1004.3 kg/m3
164.2 kPa | 1004.3 kg/m3
164.5 kPa | 1004.2 kg/m3
164.7 kPa | 1004.3 kg/m3
165.2 kPa | 1004.2 kg/m3
165.7 kPa | 1004.3 kg/m3
166.4 kPa | 1004.1 kg/m3
166.8 kPa | 1004.3 kg/m3
166.9 kPa | 1004.3 kg/m3
167.5 kPa | 1004.2 kg/m3
168.2 kPa | 1004.2 kg/m3
169.7 kPa | 1004.2 kg/m3
173.5 kPa | 1004.2 kg/m3
174.1 kPa | 1004.2 kg/m3
174.8 kPa | 1004.1 kg/m3
175.1 kPa | 1004.3 kg/m3
175.4 kPa | 1004.2 kg/m3
177 kPa | 1004.2 kg/m3
177.9 kPa | 1004.2 kg/m3
178 kPa | 1004.2 kg/m3
178.4 kPa | 1004.1 kg/m3
178.9 kPa | 1004.2 kg/m3
179.4 kPa | 1004.2 kg/m3
179.6 kPa | 1004.2 kg/m3
179.8 kPa | 1004.2 kg/m3
180.3 kPa | 1004.3 kg/m3
181 kPa | 1004.2 kg/m3
181.4 kPa | 1004.2 kg/m3
181.9 kPa | 1004.3 kg/m3
182.2 kPa | 1004.2 kg/m3
182.9 kPa | 1004.3 kg/m3
184.1 kPa | 1004.3 kg/m3
185 kPa | 1004.3 kg/m3
185.3 kPa | 1004.2 kg/m3
185.7 kPa | 1004.2 kg/m3
186 kPa | 1004.3 kg/m3
186.4 kPa | 1004.2 kg/m3
187.1 kPa | 1004.2 kg/m3
187.6 kPa | 1004.3 kg/m3
188.3 kPa | 1004.3 kg/m3
188.6 kPa | 1004.2 kg/m3
188.8 kPa | 1004.1 kg/m3
189.2 kPa | 1004.2 kg/m3
189.5 kPa | 1004.3 kg/m3
189.9 kPa | 1004.3 kg/m3
190.2 kPa | 1004.1 kg/m3
190.5 kPa | 1004.3 kg/m3
190.7 kPa | 1004.2 kg/m3
191.4 kPa | 1004.2 kg/m3
191.9 kPa | 1004.3 kg/m3
192.3 kPa | 1004.3 kg/m3 and 1004.2 kg/m3
192.6 kPa | 1004.4 kg/m3
192.8 kPa | 1004.2 kg/m3
193.1 kPa | 1004.2 kg/m3
193.3 kPa | 1004.2 kg/m3
193.8 kPa | 1004.2 kg/m3
194.4 kPa | 1004.2 kg/m3
194.7 kPa | 1004.3 kg/m3
195.1 kPa | 1004.3 kg/m3
195.2 kPa | 1004.2 kg/m3
195.8 kPa | 1004.2 kg/m3
195.9 kPa | 1004.2 kg/m3
196.3 kPa | 1004.3 kg/m3
196.8 kPa | 1004.3 kg/m3
197.1 kPa | 1004.2 kg/m3
197.3 kPa | 1004.2 kg/m3
197.5 kPa | 1004.1 kg/m3
197.8 kPa | 1004.3 kg/m3
198.2 kPa | 1004.2 kg/m3
198.7 kPa | 1004.3 kg/m3
198.9 kPa | 1004.3 kg/m3
199.2 kPa | 1004.2 kg/m3
199.6 kPa | 1004.4 kg/m3
200.3 kPa | 1004.3 kg/m3
200.8 kPa | 1004.1 kg/m3 and 1004.3 kg/m3
201 kPa | 1004.2 kg/m3
201.5 kPa | 1004.1 kg/m3
202 kPa | 1004.3 kg/m3
202.2 kPa | 1004.4 kg/m3
202.5 kPa | 1004.2 kg/m3
202.7 kPa | 1004.1 kg/m3
203.2 kPa | 1004.3 kg/m3
204.1 kPa | 1004.1 kg/m3
204.3 kPa | 1004.2 kg/m3
204.6 kPa | 1004.2 kg/m3
205.1 kPa | 1004.2 kg/m3
205.7 kPa | 1004.2 kg/m3
205.8 kPa | 1004.2 kg/m3
206.5 kPa | 1004.3 kg/m3 and 1004.2 kg/m3
207 kPa | 1004.1 kg/m3
208.6 kPa | 1004.2 kg/m3
208.8 kPa | 1004.3 kg/m3
209.3 kPa | 1004.2 kg/m3
209.6 kPa | 1004.2 kg/m3
210 kPa | 1004.2 kg/m3
210.5 kPa | 1004.3 kg/m3
211 kPa | 1004.2 kg/m3
211.6 kPa | 1004.3 kg/m3
212.1 kPa | 1004.2 kg/m3
212.4 kPa | 1004.3 kg/m3
212.8 kPa | 1004.3 kg/m3
212.9 kPa | 1004.2 kg/m3
213.5 kPa | 1004.3 kg/m3
213.8 kPa | 1004.2 kg/m3
214.5 kPa | 1004.3 kg/m3
215.2 kPa | 1004.3 kg/m3
215.7 kPa | 1004.2 kg/m3
216.2 kPa | 1004.3 kg/m3
216.8 kPa | 1004.2 kg/m3
217.5 kPa | 1004.2 kg/m3
219 kPa | 1004.1 kg/m3
219.4 kPa | 1004.3 kg/m3
